We go through 38 compounds from patent US10717742B2, “Spiro[3H-indole-3,2′-pyrrolidin]-2(1H)-one compounds and derivatives as MDM2-P53 inhibitors” (Boehringer Ingelheim International GmbH, priority 2015, dated 2020).

The test addresses p53-MDM2 interaction (GST-MDM2 protein aa 23-117 / biotinylated p53 wt peptide) (Homo sapiens (Human), UniProt Q00987). As to the kind of experiment: Mdm2-p53 Inhibition AlphaScreen. It counts as binding. The following applies: GST-MDM2 (aa 23-117) / biotinylated p53 wt peptide. On the procedure:
Mdm2-p53 Inhibition AlphaScreen
15 μL of compound in 20% DMSO (serial pre-dilutions of compound are done in 100% DMSO) is pipetted to the wells of a white OptiPlate-96 (Perkin Elmer). A mix consisting of 20 nM GST-MDM2 protein (aa 23-117) and 20 nM biotinylated p53 wt peptide (encompassing aa 16-27 of wt human p53, amino acid sequence […]-Ttds-Lys-Biotin, molecular weight 2132.56 g/mol) is prepared in assay buffer (50 mM Tris/HCl pH 7.2; 120 mM NaCl; 0.1% bovine serum albumin (BSA); 5 mM dithiothreitol (DTT); 1 mM ethylenediaminetetraacetic acid (EDTA); 0.01% Tween 20). 30 μL of the mix is added to the compound dilutions and incubated for 15 min at rt while gently shaking the plate at 300 rounds per minute (rpm). Subsequently, 15 μL of premixed AlphaLISA Glutathione Acceptor Beads and AlphaScreen Streptavidin Donor Beads from PerkinElmer (in assay buffer at a concentration of 10 μg/mL each) are added and the samples are incubated for 30 min at rt in the dark (shaking 300 rpm). Afterwards, the signal is measured in a PerkinElmer Envision HIS Multilabel Reader using the AlphaScreen protocol from Perkin Elmer.
Each plate contains negative controls where biotinylated p53-peptide and GST-MDM2 are left out and replaced by assay buffer. Negative control values are entered as low basis value when using the software GraphPad Prism for calculations. Furthermore, a positive control (5% DMSO instead of test compound; with protein/peptide mix) is pipetted. Determination of IC50 values are carried out using GraphPad Prism 3.03 software (or updates thereof).
In general terms: Alpha assays give light when donor and acceptor beads are brought close together.

Chain of p53-MDM2 interaction (GST-MDM2 protein aa 23-117 / biotinylated p53 wt peptide) (Q00987 23-117): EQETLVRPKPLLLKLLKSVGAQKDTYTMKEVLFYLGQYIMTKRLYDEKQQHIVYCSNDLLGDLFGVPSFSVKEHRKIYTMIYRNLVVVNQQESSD

By IC50 is commonly meant the midpoint of a concentration-inhibition curve. A higher IC50 goes with lower potency. `O=C(O)c1cc2nc3n(c2cc1OC(F)(F)F)C[C@H]1[C@@H]3[C@H](c2cccc(Cl)c2F)[C@]2(C(=O)Nc3cc(Cl)ccc32)N1CC1CC1` [Ib-197] came in with a half-inhibitory concentration (IC50) of 2 nM.

Take `O=C(O)c1ccc2c(c1)nc1n2C[C@H]2[C@@H]1[C@H](c1cccc(Br)c1F)[C@]1(C(=O)Nc3cc(Cl)ccc31)N2CC1CC1` [Ib-198]: 4 nM corresponded to half-maximal inhibition (IC50).

For the compound `O=C(O)c1ccc2c(c1)nc1n2C[C@H]2[C@@H]1[C@H](c1cc(Cl)cs1)[C@]1(C(=O)Nc3cc(Cl)ccc31)N2CC1CC1` [Ib-200], the IC50 came out at 3 nM.

Compound `O=C(O)c1ccc2c(c1)nc1n2C[C@H]2[C@@H]1[C@H](c1ccc(Cl)s1)[C@]1(C(=O)Nc3cc(Cl)ccc31)N2CC1CC1` [Ib-202] had an IC50 of 7 nM.

On to `Cc1c(C(=O)O)ccc2nc3n(c12)CC[C@H]1[C@@H]3[C@H](c2cccc(Cl)c2F)[C@]2(C(=O)Nc3cc(Cl)ccc32)N1CC1CC1` [Ib-204], for which the IC50 is 2 nM. Compared with the last compound, the IC50 is about 3.5-fold lower.

With `Cc1cc(C(=O)O)cc2c1nc1n2CC[C@H]2[C@@H]1[C@H](c1cccc(Cl)c1F)[C@]1(C(=O)Nc3cc(Cl)ccc31)N2CC1CC1` [Ib-205], the IC50 stood at 3 nM.

`Cc1c(C(=O)O)ccc2nc3n(c12)CC[C@H]1[C@@H]3[C@H](c2cccc(Cl)c2F)[C@]2(C(=O)Nc3cc(Cl)ccc32)N1CC1CC1` [Ib-206] displayed a half-maximal inhibitory concentration (IC50) of 4 nM.

Consider `Cc1c(C(=O)O)ccc2c1nc1n2CC[C@H]2[C@@H]1[C@H](c1ccnc(Cl)c1F)[C@]1(C(=O)Nc3cc(Cl)ccc31)N2CC1CC1` [Ib-207], for which it took 8 nM to reach half-maximal inhibition (IC50). Compared with the last compound, the IC50 is about 2-fold higher.

For `CNC(=O)c1ccc2c(c1)nc1n2CC[C@H]2[C@@H]1[C@H](c1cccc(Cl)c1F)[C@]1(C(=O)Nc3cc(Cl)ccc31)N2CC1CC1` [Ib-209], the IC50 was 3 nM. Compared with the last compound, the IC50 is about 2.7-fold lower.

`NC(=O)c1ccc2c(c1)nc1n2CC[C@H]2[C@@H]1[C@H](c1cccc(Cl)c1F)[C@]1(C(=O)Nc3cc(Cl)ccc31)N2CC1CC1` [Ib-210] displayed an IC50 of 4 nM.

Compound `CN(C)C(=O)c1ccc2c(c1)nc1n2CC[C@H]2[C@@H]1[C@H](c1cccc(Cl)c1F)[C@]1(C(=O)Nc3cc(Cl)ccc31)N2CC1CC1` [Ib-211] registered a concentration for half-maximal inhibition (IC50) of 11 nM.

`O=C(NC1CC1)c1ccc2c(c1)nc1n2CC[C@H]2[C@@H]1[C@H](c1cccc(Cl)c1F)[C@]1(C(=O)Nc3cc(Cl)ccc31)N2CC1CC1` [Ib-212]: half-maximal inhibition (IC50) was put at 5 nM.

The compound `CC(C)(O)CNC(=O)c1ccc2c(c1)nc1n2CC[C@H]2[C@@H]1[C@H](c1cccc(Cl)c1F)[C@]1(C(=O)Nc3cc(Cl)ccc31)N2CC1CC1` [Ib-213] showed an IC50 of 7 nM. The IC50 values of the last two compounds are within 1.5-fold of each other.

Regarding `O=C(NC(CO)CO)c1ccc2c(c1)nc1n2CC[C@H]2[C@@H]1[C@H](c1cccc(Cl)c1F)[C@]1(C(=O)Nc3cc(Cl)ccc31)N2CC1CC1` [Ib-214], 3 nM corresponded to half-maximal inhibition (IC50).

The compound `O=C(NCCO)c1ccc2c(c1)nc1n2CC[C@H]2[C@@H]1[C@H](c1cccc(Cl)c1F)[C@]1(C(=O)Nc3cc(Cl)ccc31)N2CC1CC1` [Ib-215] registered a half-inhibitory concentration (IC50) of 4 nM.

`COCCNC(=O)c1ccc2c(c1)nc1n2CC[C@H]2[C@@H]1[C@H](c1cccc(Cl)c1F)[C@]1(C(=O)Nc3cc(Cl)ccc31)N2CC1CC1` [Ib-216]: the IC50 came to 7 nM. This IC50 lies about 1.8-fold higher than the previous one.

For the compound `COCC(COC)NC(=O)c1ccc2c(c1)nc1n2CC[C@H]2[C@@H]1[C@H](c1cccc(Cl)c1F)[C@]1(C(=O)Nc3cc(Cl)ccc31)N2CC1CC1` [Ib-217], the IC50 came out at 4 nM.

Compound `O=C(NC(CO)(CO)CO)c1ccc2c(c1)nc1n2CC[C@H]2[C@@H]1[C@H](c1cccc(Cl)c1F)[C@]1(C(=O)Nc3cc(Cl)ccc31)N2CC1CC1` [Ib-218] yielded a half-inhibitory concentration (IC50) of 6 nM. Compared with the last compound, the IC50 is about 1.5-fold higher.

`COCCOCCNC(=O)c1ccc2c(c1)nc1n2CC[C@H]2[C@@H]1[C@H](c1cccc(Cl)c1F)[C@]1(C(=O)Nc3cc(Cl)ccc31)N2CC1CC1` [Ib-219] returned a half-inhibitory concentration (IC50) of 5 nM.

Compound `O=C(c1ccc2c(c1)nc1n2CC[C@H]2[C@@H]1[C@H](c1cccc(Cl)c1F)[C@]1(C(=O)Nc3cc(Cl)ccc31)N2CC1CC1)N1CCOCC1` [Ib-220] returned an IC50 of 10 nM.

Compound `CN1CCN(C(=O)c2ccc3c(c2)nc2n3CC[C@H]3[C@@H]2[C@H](c2cccc(Cl)c2F)[C@]2(C(=O)Nc4cc(Cl)ccc42)N3CC2CC2)CC1` [Ib-221] had an IC50 of 10 nM.

`NCCNC(=O)c1ccc2c(c1)nc1n2CC[C@H]2[C@@H]1[C@H](c1cccc(Cl)c1F)[C@]1(C(=O)Nc3cc(Cl)ccc31)N2CC1CC1` [Ib-222] yielded a half-inhibitory concentration (IC50) of 9 nM.

`CN(C)CCNC(=O)c1ccc2c(c1)nc1n2CC[C@H]2[C@@H]1[C@H](c1cccc(Cl)c1F)[C@]1(C(=O)Nc3cc(Cl)ccc31)N2CC1CC1` [Ib-223] gave an IC50 of 5 nM.

`CC1(NC(=O)c2ccc3c(c2)nc2n3CC[C@H]3[C@@H]2[C@H](c2cccc(Cl)c2F)[C@]2(C(=O)Nc4cc(Cl)ccc42)N3CC2CC2)COC1` [Ib-225] yielded an IC50 of 5 nM. That is a single-digit nanomolar value.

`CC1(CNC(=O)c2ccc3c(c2)nc2n3CC[C@H]3[C@@H]2[C@H](c2cccc(Cl)c2F)[C@]2(C(=O)Nc4cc(Cl)ccc42)N3CC2CC2)COC1` [Ib-226]: the concentration for half-maximal inhibition (IC50) is 5 nM.

`O=C(c1ccc2c(c1)nc1n2CC[C@H]2[C@@H]1[C@H](c1cccc(Cl)c1F)[C@]1(C(=O)Nc3cc(Cl)ccc31)N2CC1CC1)N1CC(O)C1` [Ib-227]: the half-maximal inhibitory concentration (IC50) stood at 4 nM.

In turn, `CN1CC(NC(=O)c2ccc3c(c2)nc2n3CC[C@H]3[C@@H]2[C@H](c2cccc(Cl)c2F)[C@]2(C(=O)Nc4cc(Cl)ccc42)N3CC2CC2)C1` [Ib-228] had an IC50 of 5 nM. The IC50 values of the last two compounds are within 1.5-fold of each other.

For `O=C(NC1COCC1O)c1ccc2c(c1)nc1n2CC[C@H]2[C@@H]1[C@H](c1cccc(Cl)c1F)[C@]1(C(=O)Nc3cc(Cl)ccc31)N2CC1CC1` (some centres unmarked) [Ib-229], the concentration for half-maximal inhibition (IC50) stood at 4 nM.

Turning to `CN(O)C(=O)c1ccc2c(c1)nc1n2CC[C@H]2[C@@H]1[C@H](c1cccc(Cl)c1F)[C@]1(C(=O)Nc3cc(Cl)ccc31)N2CC1CC1` [Ib-230], the IC50 stood at 10 nM.

The compound `O=C(NO)c1ccc2c(c1)nc1n2CC[C@H]2[C@@H]1[C@H](c1cccc(Cl)c1F)[C@]1(C(=O)Nc3cc(Cl)ccc31)N2CC1CC1` [Ib-231] gave an IC50 of 4 nM.

Turning to `CC(C)CN1[C@H]2CCn3c(nc4cc(C(N)=O)ccc43)[C@H]2[C@H](c2cccc(Cl)c2F)[C@]12C(=O)Nc1cc(Cl)ccc12` [Ib-232], the half-inhibitory concentration (IC50) came out at 3 nM.

Consider `CNC(=O)c1ccc2c(c1)nc1n2CC[C@H]2[C@@H]1[C@H](c1cccc(Cl)c1F)[C@]1(C(=O)Nc3cc(Cl)ccc31)N2CC(C)C` [Ib-233], for which the IC50 is 4 nM. The IC50 values of the last two compounds are within 1.5-fold of each other.

As to `CNC(=O)c1cc2nc3n(c2cc1OC)CC[C@H]1[C@@H]3[C@H](c2cccc(Cl)c2F)[C@]2(C(=O)Nc3cc(Cl)ccc32)N1CC1CC1` [Ib-235], the IC50 was determined as 3 nM.

In turn, `COc1cc2c(cc1C(=O)N(C)C)nc1n2CC[C@H]2[C@@H]1[C@H](c1cccc(Cl)c1F)[C@]1(C(=O)Nc3cc(Cl)ccc31)N2CC1CC1` [Ib-236] yielded a half-maximal inhibitory concentration (IC50) of 5 nM.

Compound `CNC(=O)c1cc2nc3n(c2cc1C)CC[C@H]1[C@@H]3[C@H](c2cccc(Cl)c2F)[C@]2(C(=O)Nc3cc(Cl)ccc32)N1CC1CC1` [Ib-237] came in with an IC50 of 10 nM.

`NC(=O)c1ccc2nc3n(c2c1)CC[C@H]1[C@@H]3[C@H](c2cccc(Cl)c2F)[C@]2(C(=O)Nc3cc(Cl)ccc32)N1CC1CC1` [Ib-238] returned an IC50 of 6 nM. Against the preceding compound, the IC50 is about 1.7-fold lower.

`NC(=O)c1ccc2c(c1)nc1n2C[C@H]2[C@@H]1[C@H](c1cccc(Cl)c1F)[C@]1(C(=O)Nc3cc(Cl)ccc31)N2CC1CC1` [Ib-239]: the 50% inhibitory concentration (IC50) was 3 nM.

`CNC(=O)c1ccc2c(c1)nc1n2C[C@H]2[C@@H]1[C@H](c1cccc(Cl)c1F)[C@]1(C(=O)Nc3cc(Cl)ccc31)N2CC1CC1` [Ib-240]: the midpoint of inhibition, the IC50, lay at 3 nM.
